From publication PMC13170813, “Agmatine coumaroyltransferase gene on the short arm of chromosome 2H is involved in hordatine biosynthesis in barley” (Plant Biotechnology, 2026)

System: T1, HvACT-2HS1
T1 construct: full-length, 467 residues; pET28a (NdeI) N-terminal His-tag removed with thrombin; E. coli Rosetta 2 (DE3); 57 kDa SDS-PAGE, 51 kDa native, monomer
Experiment: HPLC of product ([…] nm), Michaelis-Menten non-linear fit
Type: biochemical, Hordeum vulgare subsp. vulgare
Conditions: 100 mM Tris-HCl pH 8.5, 40°C

Km (100 µM p-coumaroyl-CoA) [µM] | Km (100 µM agmatine) [µM] | Compound
30 ± 1.3 |  | N=C(N)NCCCCN [Agmatine]
 | 6.6 ± 2.2 | COc1cc(/C=C/C(=O)SCCNC(=O)CCNC(=O)[C@H](O)C(C)(C)COP(=O)(O)OP(=O)(O)OC[C@H]2O[C@@H](n3cnc4c(N)ncnc43)[C@H](O)[C@@H]2OP(=O)(O)O)ccc1O [Feruloyl-CoA]
30000 |  | NCCCCN [Putrescine]
 | 12 ± 1.3 | CC(C)(COP(=O)(O)OP(=O)(O)OC[C@H]1O[C@@H](n2cnc3c(N)ncnc32)[C@H](O)[C@@H]1OP(=O)(O)O)[C@@H](O)C(=O)NCCC(=O)NCCSC(=O)/C=C/c1ccc(O)cc1 [p-Coumaroyl-CoA]
